Test results from PubChem BioAssay AID330 (DTP/NCI, 2004).
“And” between values parts separate entries of the source, which are not always exact repeats. Equal values may be shown once. Toxic doses and inconclusive results are not listed. Rule for the calls: active = survival T/C of 150% or more; inactive = T/C below 125% in these data.

System: P388 leukemia ip, CD2F1 mice, survival T/C
Assay: NCI In Vivo Anticancer Drug Screen. Data for tumor model P388 Leukemia (intraperitoneal) in CD2F1 (CDF1) mice
Details: endpoint: median survival time, higher = longer survival
Procedure, shortened: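 Mice carrying the transplanted tumor received test compound or vehicle. Survival was recorded in each group, and the value is the treated-group measurement divided by that of the vehicle-treated control group.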

[1] = dose: 50.0 mg/kg/injection, schedule: Q01DX005 (ip), vehicle: Klucel (hydroxypropylcellulose) (HPC)
[2] = dose: 100.0 mg/kg/injection, schedule: Q01DX005 (ip), vehicle: Klucel (hydroxypropylcellulose) (HPC)
[3] = dose: 200.0 mg/kg/injection, schedule: Q01DX005 (ip), vehicle: Klucel (hydroxypropylcellulose) (HPC)
[4] = dose: 50.0 mg/kg/injection, schedule: Q01DX005 (ip), vehicle: saline with Tween-80
[5] = dose: 100.0 mg/kg/injection, schedule: Q01DX005 (ip), vehicle: saline with Tween-80
[6] = dose: 200.0 mg/kg/injection, schedule: Q01DX005 (ip), vehicle: saline with Tween-80
[7] = dose: 100.0 mg/kg/injection, schedule: Q04DX002 (ip), vehicle: saline
[8] = dose: 200.0 mg/kg/injection, schedule: Q04DX002 (ip), vehicle: saline
[9] = dose: 6.25 mg/kg/injection, schedule: Q01DX005 (ip), vehicle: saline with Tween-80
[10] = dose: 6.25 mg/kg/injection, schedule: Q01DX009 (ip), vehicle: saline with Tween-80
[11] = dose: 12.5 mg/kg/injection, schedule: Q01DX009 (ip), vehicle: saline with Tween-80
[12] = dose: 25.0 mg/kg/injection, schedule: Q01DX009 (ip), vehicle: saline with Tween-80
[13] = dose: 50.0 mg/kg/injection, schedule: Q01DX009 (ip), vehicle: saline with Tween-80
[14] = dose: 60.0 mg/kg/injection, schedule: Q01DX005 (ip), vehicle: saline with Tween-80
[15] = dose: 120.0 mg/kg/injection, schedule: Q01DX005 (ip), vehicle: saline with Tween-80
[16] = dose: 240.0 mg/kg/injection, schedule: Q01DX005 (ip), vehicle: saline with Tween-80

Measured: T/C

COC1=CC(=O)C2=C(OCO2)C1=O
inactive: dose: 6.25 mg/kg/injection, schedule: Q04DX002 (ip), vehicle: saline with Tween-80 104 % of control | dose: 12.5 mg/kg/injection, schedule: Q04DX002 (ip), vehicle: saline with Tween-80 109 % of control | dose: 25.0 mg/kg/injection, schedule: Q04DX002 (ip), vehicle: saline with Tween-80 103 % of control

O=C1C2=C(Nc3ccccc3N2)OC1c1ccncc1 (stereo not drawn)
inactive: dose: 60.0 mg/kg/injection, schedule: Q01DX005 (ip), vehicle: Klucel (hydroxypropylcellulose) (HPC) 93 % of control | dose: 120.0 mg/kg/injection, schedule: Q01DX005 (ip), vehicle: Klucel (hydroxypropylcellulose) (HPC) 93 % of control | dose: 240.0 mg/kg/injection, schedule: Q01DX005 (ip), vehicle: Klucel (hydroxypropylcellulose) (HPC) 88 % of control

COc1ccc2c(C)cc(N/N=C\c3cccc4ccccc34)nc2c1
inactive: [1] 98 % of control | [2] 93 % of control | [3] 106 % of control

COc1cc(N=Nc2c(Cl)cc([N+](=O)[O-])cc2Cl)c(OC)cc1N=Nc1ccc(N)nc1N
inactive: [4] 99 % of control | [5] 100 % of control | [6] 101 % of control

Oc1c(Cl)cc(Cl)cc1/C=N/c1nc(-c2ccc(Cl)cc2)cs1
inactive: dose: 100.0 mg/kg/injection, schedule: Q01DX009 (ip), vehicle: saline with Tween-80 88 % of control | dose: 200.0 mg/kg/injection, schedule: Q01DX009 (ip), vehicle: saline with Tween-80 104 % of control

COC(=O)C1CCCCOCCOCCOCCOCCOCCCCCC1=O (stereo not drawn)
inactive: [4] 102 % of control | [5] 102 % of control | [6] 94 % of control

CC1(C)CCCC2=C1C(=O)N(SC(Cl)(Cl)Cl)C2=O
inactive: dose: 12.5 mg/kg/injection, schedule: Q01DX005 (ip), vehicle: Klucel (hydroxypropylcellulose) (HPC) 102 % of control | dose: 25.0 mg/kg/injection, schedule: Q01DX005 (ip), vehicle: Klucel (hydroxypropylcellulose) (HPC) 121 % of control | [1] 121 % of control and 123 % of control | [2] 122 % of control

Nc1ncnc2c1ncn2C1OC(CO)C(O)C1N (stereo not drawn)
inactive: dose: 50.0 mg/kg/injection, schedule: Q04DX002 (ip), vehicle: saline 106 % of control | [7] 110 % of control | [8] 112 % of control

O=C1C(Cl)=C(NCCCN(CCCNC2=C(Cl)C(=O)c3ccccc3C2=O)C2=C(Cl)C(=O)c3ccccc3C2=O)C(=O)c2ccccc21
inactive: dose: 50.0 mg/kg/injection, schedule: Q01DX009 (ip), vehicle: saline 108 % of control and 118 % of control | dose: 100.0 mg/kg/injection, schedule: Q01DX009 (ip), vehicle: saline 109 % of control and 115 % of control | dose: 200.0 mg/kg/injection, schedule: Q01DX009 (ip), vehicle: saline 105 % of control and 108 % of control

COc1cc(NCCCCCCNC(C)C)c2ncccc2c1
inactive: [9] 100 % of control | dose: 12.5 mg/kg/injection, schedule: Q01DX005 (ip), vehicle: saline with Tween-80 102 % of control | dose: 25.0 mg/kg/injection, schedule: Q01DX005 (ip), vehicle: saline with Tween-80 95 % of control

CCc1nnc(NC(=S)NC(=O)OC)s1
inactive: dose: 25.0 mg/kg/injection, schedule: Q04DX003 (ip), vehicle: saline with Tween-80 100 % of control | dose: 50.0 mg/kg/injection, schedule: Q04DX003 (ip), vehicle: saline with Tween-80 105 % of control | dose: 100.0 mg/kg/injection, schedule: Q04DX003 (ip), vehicle: saline with Tween-80 105 % of control

Oc1cc(CN2CCOCC2)c(O)cc1CN1CCOCC1
inactive: dose: 1.56 mg/kg/injection, schedule: Q01DX009 (ip), vehicle: saline with Tween-80 100 % of control | dose: 3.13 mg/kg/injection, schedule: Q01DX009 (ip), vehicle: saline with Tween-80 119 % of control and 121 % of control | [10] 113 % of control | [11] 113 % of control | [12] 117 % of control

CC(=O)OCC1C(=O)OCC1C(=O)N1Cc2cc3ccccc3nc2C1 (stereo not drawn)
inactive: [10] 100 % of control | dose: 8.0 mg/kg/injection, schedule: Q01DX009 (ip), vehicle: saline with Tween-80 104 % of control and 93 % of control and 97 % of control | [11] 113 % of control | dose: 16.0 mg/kg/injection, schedule: Q01DX009 (ip), vehicle: saline with Tween-80 105 % of control and 116 % of control and 98 % of control | [12] 105 % of control | dose: 32.0 mg/kg/injection, schedule: Q01DX009 (ip), vehicle: saline with Tween-80 113 % of control and 116 % of control and 97 % of control | [13] 105 % of control | dose: 64.0 mg/kg/injection, schedule: Q01DX009 (ip), vehicle: saline with Tween-80 99 % of control and 105 % of control | dose: 128.0 mg/kg/injection, schedule: Q01DX009 (ip), vehicle: saline with Tween-80 100 % of control and 106 % of control and 108 % of control

CCOP(=S)(N/N=C(\C)c1ccncc1)OCC
inactive: [1] 112 % of control | [2] 107 % of control | [3] 115 % of control

O=C(NC(=S)c1cccc2ccccc12)Nc1ccc(Cl)c(Cl)c1
inactive: [11] 89 % of control | [12] 87 % of control | [13] 103 % of control

C=C[C@H](c1ccccc1O)c1cc(O)c(OC)cc1OC
inactive: dose: 31.0 mg/kg/injection, schedule: Q01DX005 (ip), vehicle: Klucel (hydroxypropylcellulose) (HPC) 103 % of control | dose: 62.0 mg/kg/injection, schedule: Q01DX005 (ip), vehicle: Klucel (hydroxypropylcellulose) (HPC) 103 % of control | dose: 124.0 mg/kg/injection, schedule: Q01DX005 (ip), vehicle: Klucel (hydroxypropylcellulose) (HPC) 93 % of control | dose: 248.0 mg/kg/injection, schedule: Q01DX005 (ip), vehicle: Klucel (hydroxypropylcellulose) (HPC) 94 % of control

COc1ccc(-n2cc(-c3ccc(Cl)cc3)c3c(N)ncnc32)cc1
inactive: [14] 105 % of control | [15] 94 % of control | [16] 86 % of control

O=C(O)C1CCC(CNCC2C(=O)OC3CCC4C(O)CC(O)C4CC32)CC1 (stereo not drawn)
inactive: [7] 97 % of control | [8] 100 % of control | dose: 400.0 mg/kg/injection, schedule: Q04DX002 (ip), vehicle: saline 105 % of control

NN1C(=O)CS/C1=N\C(=S)N/N=C1/SCC(=O)N1N
inactive: dose: 0.04 mg/kg/injection, schedule: Q01DX009 (ip), vehicle: saline 94 % of control | dose: 0.09 mg/kg/injection, schedule: Q01DX009 (ip), vehicle: saline 97 % of control | dose: 0.19 mg/kg/injection, schedule: Q01DX009 (ip), vehicle: saline 99 % of control | dose: 0.78 mg/kg/injection, schedule: Q01DX009 (ip), vehicle: saline 98 % of control and 99 % of control

CC1=CC(=O)[C@@H](O)[C@]2(C)[C@H]3[C@@]4(O)OC[C@]35[C@H]([C@@H](CO)[C@H]4O)[C@@H](OC3OC(CO)C(O)C(O)C3O)C(=O)O[C@@H]5C[C@@H]12 (stereo partly drawn)
inactive: dose: 0.25 mg/kg/injection, schedule: Q01DX005 (ip), vehicle: Klucel (hydroxypropylcellulose) (HPC) 99 % of control | dose: 0.5 mg/kg/injection, schedule: Q01DX005 (ip), vehicle: Klucel (hydroxypropylcellulose) (HPC) 99 % of control | dose: 1.0 mg/kg/injection, schedule: Q01DX005 (ip), vehicle: Klucel (hydroxypropylcellulose) (HPC) 98 % of control | dose: 1.87 mg/kg/injection, schedule: Q01DX005 (ip), vehicle: Klucel (hydroxypropylcellulose) (HPC) 96 % of control | dose: 2.0 mg/kg/injection, schedule: Q01DX005 (ip), vehicle: Klucel (hydroxypropylcellulose) (HPC) 100 % of control

COC1OC(C)(C(OC)OC)CCC1C (stereo not drawn)
inactive: [4] 99 % of control | [5] 94 % of control | [6] 92 % of control

O=C1C(Br)=C(Nc2ccccc2)C(=O)C(Br)=C1Nc1ccccc1
inactive: [1] 98 % of control | [2] 93 % of control

Brc1cc(Br)cc(CN2CCOCC2)c1
inactive: [14] 98 % of control | [15] 100 % of control | [16] 106 % of control

CCC[CH2][Sn]1([CH2]CCC)[O]C(=O)CCSCCC(=O)[O]1
inactive: dose: 1.56 mg/kg/injection, schedule: Q01DX005 (ip), vehicle: saline with Tween-80 100 % of control and 106 % of control | dose: 3.12 mg/kg/injection, schedule: Q01DX005 (ip), vehicle: saline with Tween-80 109 % of control and 115 % of control and 121 % of control | [9] 107 % of control
